According to US8192962B2, “Processes for detecting toxic substances” (Daikin Industries, Ltd., priority 2001, dated 2012):

Test system: Mitochondria-located protein genes
Test: DNA chip mRNA expression in yeast, mitochondria-located protein genes (Table 2)
Type: cell-based, Saccharomyces cerevisiae S288C
Conditions: cells incubated two hours with the chemical substance
Method in brief: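 First, S288C yeast grown in YPD at 25° C. are dosed in log phase with one toxicant (growth-inhibiting, not lethal) for 2 h. Next, total RNA is extracted and poly(A) mRNA isolated and reverse-transcribed with Cy3/Cy5-dUTP. Finally, whole-genome chip fluorescence is read relative to unexposed cells.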

## Na2As [(1)]
Yeast gene YAL039C
  The level of expressed mRNA in the presence of chemical substance/The level of expressed mRNA in the absence of chemical substance: 1.1
Yeast gene YBL022C
  The level of expressed mRNA in the presence of chemical substance/The level of expressed mRNA in the absence of chemical substance: 0.4
Yeast gene YBL030C
  The level of expressed mRNA in the presence of chemical substance/The level of expressed mRNA in the absence of chemical substance: 1.0
Yeast gene YBL038W
  The level of expressed mRNA in the presence of chemical substance/The level of expressed mRNA in the absence of chemical substance: 1.0
Yeast gene YBL099W
  The level of expressed mRNA in the presence of chemical substance/The level of expressed mRNA in the absence of chemical substance: 0.8
Yeast gene YBR003W
  The level of expressed mRNA in the presence of chemical substance/The level of expressed mRNA in the absence of chemical substance: 0.9
Yeast gene YBR044C
  The level of expressed mRNA in the presence of chemical substance/The level of expressed mRNA in the absence of chemical substance: 0.8
Yeast gene YBR091C
  The level of expressed mRNA in the presence of chemical substance/The level of expressed mRNA in the absence of chemical substance: 1.1
Yeast gene YBR122C
  The level of expressed mRNA in the presence of chemical substance/The level of expressed mRNA in the absence of chemical substance: 0.9
Yeast gene YBR185C
  The level of expressed mRNA in the presence of chemical substance/The level of expressed mRNA in the absence of chemical substance: 1.2
Yeast gene YBR221C
  The level of expressed mRNA in the presence of chemical substance/The level of expressed mRNA in the absence of chemical substance: 0.8
Yeast gene YBR251W
  The level of expressed mRNA in the presence of chemical substance/The level of expressed mRNA in the absence of chemical substance: 1.0
Yeast gene YBR282W
  The level of expressed mRNA in the presence of chemical substance/The level of expressed mRNA in the absence of chemical substance: 1.0
Yeast gene YCL057W
  The level of expressed mRNA in the presence of chemical substance/The level of expressed mRNA in the absence of chemical substance: 0.6
Yeast gene YCR046C
  The level of expressed mRNA in the presence of chemical substance/The level of expressed mRNA in the absence of chemical substance: 1.0
Yeast gene YCR083W
  The level of expressed mRNA in the presence of chemical substance/The level of expressed mRNA in the absence of chemical substance: 1.1
Yeast gene YDL067C
  The level of expressed mRNA in the presence of chemical substance/The level of expressed mRNA in the absence of chemical substance: 1.8
Yeast gene YDL181W
  The level of expressed mRNA in the presence of chemical substance/The level of expressed mRNA in the absence of chemical substance: 1.3
Yeast gene YDL198C
  The level of expressed mRNA in the presence of chemical substance/The level of expressed mRNA in the absence of chemical substance: 1.4
Yeast gene YDR079W
  The level of expressed mRNA in the presence of chemical substance/The level of expressed mRNA in the absence of chemical substance: 1.3
Yeast gene YDR178W
  The level of expressed mRNA in the presence of chemical substance/The level of expressed mRNA in the absence of chemical substance: 2.0
Yeast gene YDR231C
  The level of expressed mRNA in the presence of chemical substance/The level of expressed mRNA in the absence of chemical substance: 1.1
Yeast gene YDR258C
  The level of expressed mRNA in the presence of chemical substance/The level of expressed mRNA in the absence of chemical substance: 1.6
Yeast gene YDR298C
  The level of expressed mRNA in the presence of chemical substance/The level of expressed mRNA in the absence of chemical substance: 1.3
Yeast gene YDR347W
  The level of expressed mRNA in the presence of chemical substance/The level of expressed mRNA in the absence of chemical substance: 1.1
Yeast gene YDR377W
  The level of expressed mRNA in the presence of chemical substance/The level of expressed mRNA in the absence of chemical substance: 1.3
Yeast gene YDR529C
  The level of expressed mRNA in the presence of chemical substance/The level of expressed mRNA in the absence of chemical substance: 1.8
Yeast gene YEL024W
  The level of expressed mRNA in the presence of chemical substance/The level of expressed mRNA in the absence of chemical substance: 1.3
Yeast gene YEL039C
  The level of expressed mRNA in the presence of chemical substance/The level of expressed mRNA in the absence of chemical substance: 1.1
Yeast gene YER178W
  The level of expressed mRNA in the presence of chemical substance/The level of expressed mRNA in the absence of chemical substance: 0.8
Yeast gene YFL016C
  The level of expressed mRNA in the presence of chemical substance/The level of expressed mRNA in the absence of chemical substance: 0.8
Yeast gene YGL018C
  The level of expressed mRNA in the presence of chemical substance/The level of expressed mRNA in the absence of chemical substance: 1.1
Yeast gene YGL187C
  The level of expressed mRNA in the presence of chemical substance/The level of expressed mRNA in the absence of chemical substance: 1.5
Yeast gene YGL191W
  The level of expressed mRNA in the presence of chemical substance/The level of expressed mRNA in the absence of chemical substance: 1.7
Yeast gene YGR008C
  The level of expressed mRNA in the presence of chemical substance/The level of expressed mRNA in the absence of chemical substance: 2.1
Yeast gene YGR028W
  The level of expressed mRNA in the presence of chemical substance/The level of expressed mRNA in the absence of chemical substance: 1.4
Yeast gene YGR062C
  The level of expressed mRNA in the presence of chemical substance/The level of expressed mRNA in the absence of chemical substance: 0.9
Yeast gene YGR076C
  The level of expressed mRNA in the presence of chemical substance/The level of expressed mRNA in the absence of chemical substance: 1.3
Yeast gene YGR082W
  The level of expressed mRNA in the presence of chemical substance/The level of expressed mRNA in the absence of chemical substance: 1.0
Yeast gene YGR174C
  The level of expressed mRNA in the presence of chemical substance/The level of expressed mRNA in the absence of chemical substance: 1.1
Yeast gene YGR244C
  The level of expressed mRNA in the presence of chemical substance/The level of expressed mRNA in the absence of chemical substance: 1.0
Yeast gene YHR008C
  The level of expressed mRNA in the presence of chemical substance/The level of expressed mRNA in the absence of chemical substance: 1.3
Yeast gene YIL155C
  The level of expressed mRNA in the presence of chemical substance/The level of expressed mRNA in the absence of chemical substance: 1.0
Yeast gene YJL096W
  The level of expressed mRNA in the presence of chemical substance/The level of expressed mRNA in the absence of chemical substance: 1.0
Yeast gene YJL102W
  The level of expressed mRNA in the presence of chemical substance/The level of expressed mRNA in the absence of chemical substance: 1.1
Yeast gene YJL133W
  The level of expressed mRNA in the presence of chemical substance/The level of expressed mRNA in the absence of chemical substance: 1.0
Yeast gene YJL166W
  The level of expressed mRNA in the presence of chemical substance/The level of expressed mRNA in the absence of chemical substance: 2.1
Yeast gene YJL180C
  The level of expressed mRNA in the presence of chemical substance/The level of expressed mRNA in the absence of chemical substance: 0.9
Yeast gene YJR045C
  The level of expressed mRNA in the presence of chemical substance/The level of expressed mRNA in the absence of chemical substance: 0.5
Yeast gene YJR077C
  The level of expressed mRNA in the presence of chemical substance/The level of expressed mRNA in the absence of chemical substance: 1.1
